The source of these data is patent publication US20050043262A1, “Novel specific inhibitor of the cyclin kinase inhibitor p21Waf1/Cip1 and methods of using the inhibitor” (priority 2000, published 2005).

One data set concerns T47D cells. As to the kind of experiment: Nuclear morphology (Hoechst 33258) in T47D cells. It counts as cell-based, human. Particulars: serum stimulated 24 hours after lipofection. The protocol:
Evaluation of Nuclear Morphology: Cells were seeded in 6-well culture dishes and treated with ODNs as described. The cells were then immersed in methanol for at least 10 min. Cells were stained in 1 μg/ml Hoechst 33258 in water with 1% nonfat dry milk. After staining for 8-10 min, the cells were rinsed in water and dried completely. Nuclear morphology was visually evaluated by fluorescence microscopy.
Apoptosis is the end result of an elaborate cascade of molecular events that ultimately result in programmed cell death; thus, a variety of tests are generally used to determine whether apoptosis is occurring. The methods to study apoptosis were employed: (a) assessment of nuclear morphology; (b) PARP cleavage; and (c) caspase-3 cleavage. Serum-starved cells were transfected with antisense p21 ODN or the control ODN, fixed, stained with Hoechst 33258, and examined under UV light. MCF7 and T47D cells were grown to confluence, serum starved for 24 hours, and lipofected with antisense p21 or control ODN. The cells were subsequently serum stimulated for another 24 hours, fixed, stained with Hoechst 33258, and examined under UV light at X400.

The next data set relates to fibronectin. Description: Fibronectin production and secretion (immunoprecipitation/immunoblot). It counts as cell-based, rat. Particulars: VSM cells, 400 nM, TGF-β 0.1 to 10 ng/ml. The method, then:
Immunoprecipitations: VSM cells were grown to confluence. After incubation under appropriate conditions, the cells were washed with ice-cold phosphate-buffered saline and immediately lysed in lysis buffer (20 mM Tris [pH7.5], 150 mM NaCl, 1 mM EDTA, 1 mM EGTA, 1% Triton X-100, 2.5 mM sodium pyrophosphate, 1 mM β-glycerolphosphate, 1 mM Na3VO4, 1 μg/ml Leupeptin, 1 mM PMSF) at 4° C. The cells were scraped off with a rubber spatula and the insoluble material removed by centrifuging at 10,000× g for 10 min at 4° C. Protein concentration was determined by A595, and lysates containing equal amounts of protein were incubated with […] anti-fibronectin antibody at 4° C. overnight. Protein A-Sepharose beads were added and the resulting mixture was incubated for an additional 2 hours at 4° C. The beads were centrifuged in a microfuge for 20 sec, and the pellet was washed 3 times with cold lysis buffer. The supernatant was decanted, gel loading buffer was added to the precipitate, and the solution was boiled for 5 min, and centrifuged. The supernatant was electrophoresed on a 7.5% SDS-polyacrylamide gel with equal volumes of sample per lane. The proteins were electrophoretically transferred to nitrocellulose and probed with fibronectin antibody.
The p21 influences on matrix protein secretion in VSM cells were determined. […]
In general terms: In western blotting, separated proteins are transferred to a membrane and probed.

The test system of the next data set is Rb. Description: Rb hyperphosphorylation by Western blot in A431 cells. Particulars: 400 nM, 10% serum 6 and 24 hours. In kind it is cell-based, human. The method, then:
Upon activation by cyclin/cdk complexes, the Rb protein in turn becomes phosphorylated, causing it to release the transcription factors known as E2F, leading to early oncogene expression and ultimately to cell growth. An effect of p21^Waf1/Cip1 on cdk/Rb interaction would be evident by a change in phosphorylation state of the Rb protein: this property can be assessed by examining small changes in gel mobility of this protein. A431 cells were transfected with 400 nM antisense p21^Waf1/Cip1 oligodeoxynucleotide (SEQ. ID NO.:1) or with lipofectin only (no DNA). After overnight incubation in serum-free medium, the cells were stimulated with complete media for 6 or 24 hours, lysed, and the lysates were Western blotted with Rb antibody.

In another data set the test system is A10 VSM cells. As to the kind of experiment: Cell proliferation by counting adherent cells. Particulars: after 18 hours of PDGF incubation. In kind it is cell-based, rat. An excerpt:
Cell culture, DNA synthesis, and proliferation assays: Cultures of both A10 and A7r5 rat aortic VSM cells were obtained from American Type Culture Collection (Rockville Md.). Bovine aortic smooth muscle cells were supplied by Martha O'Donnell (O'Donnell and Owen, 1986 Proc Natl. Acad. Sci.US.A., 83, p. 6132-6136). All of the cell lines were maintained as described (Weiss et al., 1998 Am. J. Physiol., 274, p. C1521-C1529) and were used between passages 15 and 25. The cells were growth-arrested by placing them in serum-free quiescence medium, exposed to growth factors as indicated, and [^3H]thymidine incorporation assessed as previously described (Weiss and Nuccitelli, 1992a J. Biol. Chem., 267, p. 5608-5613). Cell proliferation was assessed by counting of adherent cells on 4 representative fields under 100× magnification in each of 3 wells per experimental condition.
Antisense techniques were employed to examine the dependence of G1-phase progression on p21^Waf1/Cip1 in the VSM cell lines (Crooke, 1993 Antisense research and applications. Boca Raton, CRC.). […] DNA synthesis was assessed by [^3H]-thymidine incorporation and is expressed as mean ± s.e.m. of three wells per data point. […] After 18 hours of PDGF incubation, the cells were counted by examining representative fields at 100× magnification. The average number of cells in 4 random fields in each well was determined.

For “5′-ATC-CCC-AGC-CGG-TTC-TGA-CAT-3′ (antisense ATCCCCAGCCGGTTCTGACAT; listed as DNA, chemistry not fully specified) [antisense p21 ODN]”, the nuclear morphology entry in the data set with T47D cells is reported as “nuclear morphological changes consistent with apoptosis”.
For 5′-GACATCACCAGGATCGGACAT-3′, the “TGF-β-mediated fibronectin production and secretion” value in the data set with fibronectin was “decreases”. For the same substance, in the data set with Rb, the “serum-induced Rb hyperphosphorylation versus no-DNA control” value is recorded as “no difference”. Further, the “cell number / cell proliferation” value is recorded as “parallel the alterations in DNA synthesis” in the data set on A10 VSM cells and “inhibited” in the data set on A10 VSM cells (listed as antisense p21^Waf1/Cip1 oligodeoxynucleotide).
